This is an account of results in patent US20100031452A1, “AZO DYES” (Universite Catholique de Louvain, priority 2008, published 2010).

Values after ≈ are worked out from the molar mass of the structure shown. Where two headings read alike, the source gives them in different places. Marks after values point to notes of the source that are not given here.

The conditions of data set [1]: classical Ames test; published data; cited from earlier work.
Data set [2] deals with fish eggs cells. In words: Fish egg test. It is filed as in vivo. Particulars: for Fish egg test (IC50 in mg L^−1): in vivo. On the procedure:
(§1) Toxicity was assessed on human intestinal cells (Caco-2), bacterial cells (Lumistox assays) and fish eggs cells. Mutagenicity was assessed through classical Ames test.

In data set [3] the test system is human intestinal cells (Caco-2). Nature of the data set: Caco-2 cytotoxicity test. Type of data set: cell-based. Particulars: for Caco-2 cytotoxicity test (IC50 in g L^−1): Caco-2 human intestinal cells. On the procedure:
as §1
(§2) The toxicity of compound 4 has been measured on Caco-2 human cells as previously described, and compared with the toxicity of compound 1.

The test system of data set [4] is bacterial cells (Lumistox assays). Nature of the data set: Lumistox test (luminescence inhibition). Type of data set: cell-based. On the procedure:
as §1

A short description of data set [5]: Ames test: mutagenicity. Type of data set: cell-based. To be noted: classical Ames test. On the procedure:
as §1
A general note: The Ames test detects mutagens through reverse mutation in bacteria.

Data set [6] can be described thus: Caco-2 cytotoxicity test. Type of data set: cell-based, human. Particulars: Caco-2 cells; Caco-2 human intestinal cells; read-out: Caco-2 cytotoxicity test (IC50 in g L^−1). On the procedure:
as §1, §2

Consider `Nc1c(N=Nc2ccc(-c3ccc(N=Nc4cc(S(=O)(=O)[O-])c5ccccc5c4N)cc3)cc2)cc(S(=O)(=O)[O-])c2ccccc12.[Na+].[Na+]` [Direct Red 28], for which the “Ames test: mutagenicity” value in data set [1] is recorded as “Positive*”. Moreover, the “Fish egg test (IC50 in mg L^−1)” value in data set [2] was less than 30 µg/mL. For the same molecule, the “Caco-2 cytotoxicity test (IC50 in g L^−1)” value (“Caco-2 cytotoxicity test” below) in data set [3] came out at 300 ± 20 µg/mL. Moreover, the “Lumistox test % of luminescence inhibition at maximal OD” value in data set [4] (at maximal OD) worked out at 3.4%.

As for `CCN(CCO)c1ccc(N=Nc2ccc([N+](=O)[O-])cc2)cc1` [Disperse Red 1], the “Fish egg test (IC50 in mg L^−1)” value in data set [2] lay in the range of 250 to 500 µg/mL. Besides, in data set [5], the “Ames test: mutagenicity” value is “Negative”. Moreover, the “Caco-2 cytotoxicity test” value in data set [3] was more than 1000 µg/mL. In addition, the “Lumistox test % of luminescence inhibition at maximal OD” value in data set [4] (saturated solution) is listed as 61.3*** %.

For the molecule `O=C(Nc1cc(S(=O)(=O)[O-])cc2cc(S(=O)(=O)[O-])c(N=Nc3cc(Nc4nc(Cl)nc(Nc5ccc(S(=O)(=O)[O-])cc5)n4)ccc3S(=O)(=O)[O-])c(O)c12)c1ccccc1.[Na+].[Na+].[Na+].[Na+]` [Reactive Red 4], the “Fish egg test (IC50 in mg L^−1)” value in data set [2] lay in the range of 500 to 1000 µg/mL. Besides, the “Ames test: mutagenicity” value in data set [5] was “Negative”. In addition, the “Caco-2 cytotoxicity test” value in data set [3] is 700 ± 60 µg/mL. The “Lumistox test % of luminescence inhibition at maximal OD” value in data set [4] (at maximal OD) was found to be 25.9%.

Regarding `Nc1c(S(=O)(=O)O)cc(/N=N/c2c(S(=O)(=O)O)cc(NC3CCCCC3)c3c2C(=O)c2ccccc2C3=O)c2c1C(=O)c1ccccc1C2=O` [Compound 1, 1-[(4-amino-9,10-dioxo-3-sulfo-9,10-dihydroanthracen-1-yl)diazenyl]-4-cyclohexylamino-9,10-dioxo-9,10-dihydroanthracene-2-sulfonic acid], the IC50 – broadly, the midpoint of a concentration-inhibition curve – was 294 µg/mL (≈ 411 µM) in data set [2] (read-out: Fish egg test (IC50 in mg L^−1)) and more than 1000 µg/mL in data set [6]. The “Ames test: mutagenicity” value in data set [5] is on record as “Negative”. The “toxicity (in words)” value in data set [3] (in the range tested, with regards to other molecules available on the market) is listed as “low toxicity”. The “Lumistox test % of luminescence inhibition at maximal OD” value in data set [4] (up to a maximal optical density (OD) of 1800) is given as 41.6** %.

Turning to `O=C1c2ccccc2C(=O)c2c(/N=N\c3cccc(S(=O)(=O)O)c3)c(S(=O)(=O)O)cc(NC3CCCCC3)c21` [Compound 4, 4-Cyclohexylamino-9,10-dioxo-1-(3-sulfo-phenylazo)-9,10-dihydro-anthracene-2-sulfonic acid], the “toxicity less than the toxicity of compound 1” value in data set [3] (Caco-2 human cells, FIG. 3, relative to compound 1) is 30%.

Turning to `Nc1ccc2cc(S(=O)(=O)[O-])cc(O)c2c1N=Nc1ccc(Cl)cc1C(F)(F)F.[Na+]` [Acid Red 299], the “Fish egg test (IC50 in mg L^−1)” value in data set [2] was in the range of 250 to 500 µg/mL. In addition, in data set [5], the “Ames test: mutagenicity” value is “Positive”. Moreover, in data set [3], the “Caco-2 cytotoxicity test” value was more than 1000 µg/mL. Also, the “Lumistox test % of luminescence inhibition at maximal OD” value in data set [4] (at maximal OD) came to 50.2%.
